# Several values for one entry are separate records, joined by “and”; a condition that tells them apart may be missing. Identical values can stand only once.
# Columns and labels:
# patients [1] = experiment: Midazolam pre-medication sedation (BIS EEG monitoring), 3 mg, SipNose vs commercial nasal pump; assay type: in vivo, human; conditions: for failures in inducing anesthesia: both comparisons pooled (3 mg and 1.4 mg)
# Protocol: A comparison was made of the efficacy of delivery of the anesthetic Midazolam, when used for pre-medication, between an embodiment of the SipNose device of the present invention and a prior-art device, the commercial nasal pump based on positive displacement (as the pump used for Alrin™ delivery) and the MAD Nasal from Wolfe Tory.
# Comparison with nasal pump (using 5 mg/ml solution): For a pre-medication procedure with commercial nasal pump (positive displacement pump), in order to achieve the desired dose of 3 mg Midazolam, the delivery device was inserted into a nostril and an aliquot of Midazolam is delivered. The delivery device is then inserted into the opposite nostril and a second aliquot of Midazolam is delivered. This is repeated twice more with a 30 s intervals between each cycle, for a total of six aliquots of Midazolam, three in each nostril. As opposed to that, for a SipNose device delivery, a single dose of 0.6 ml was delivered to one nostril.
# (§1) In order to determine the efficacy of anesthetization a BIS EEG monitoring was used, where the BIS values for brain activity are calculated from the EEG activity. Awake, unsedated individuals typically have BIS values ≥97. Mildly sedated individuals typically have BIS values in the 80's, moderately sedated individuals typically have BIS values in the 70's, while fully sedated individuals typically have BIS values below about 70; BIS values between about 45 and about 60 are commonly used for general anesthesia during the maintenance phase of an operation.
# (§2) Two comparisons were made between the commercial device and the present, SipNose, device. In the first, 3 mg of Midazolam was administered and the commercial device was a commercial nasal pump (positive displacement), in the second, 1.4 mg of Midazolam was administered and the commercial device was a MAD applicator.
# patients [2] = experiment: Midazolam pre-medication sedation (BIS EEG monitoring), 1.4 mg, SipNose vs MAD Nasal atomizer; assay type: in vivo, human; conditions: for Positive Sedation / Adverse events / Level of minimum BIS / Onset time: individual patients 1 and 2
# Protocol: Comparison with MAD (using a 1 mg/ml solution): For a pre-medication procedure with MAD atomizer, in order to achieve the desired dose of 1.4 mg Midazolam, the delivery device was delivered to one nostril and an aliquot of Midazolam within a volume of 1.4 ml was delivered. For SipNose device delivery the Midazolam was delivered in 2 separate aliquots of 0.7 ml, one to each nostril.
# as §1, §2
# In the second comparison, the total dose of Midazolam was 1.4 mg in a total volume of carrier of 1.4 ml. For the SipNose device, it was administered in two aliquots of 0.7 ml, whereas it was administered in one aliquot for the commercial MAD Nasal atomizer from Wolfe Tory. Midozolam was administered to four patients, two with the SipNose device and two with the commercial MAD device.
# [3] = Dose-response of Midazolam brain concentration; assay type: in vivo, rat; conditions: rats; doses about 0.6 to about 6 mg/kg; brain concentration 60 minutes after administration
# Protocol: In this example, doses of Midazolam between about 0.6 mg/kg and about 6 mg/kg were administered to rats and the concentration of Midazolam in the brain was measured 60 minutes after administration.
# [4] = tested on: New Zealand White female rabbits; experiment: Nasal cavity irritation and general toxicity of repeated intra-nasal Midazolam
# Protocol: Nasal cavity irritation and general toxicity were assessed for repeated intra-nasal applications of Midazolam to rabbits, using a SipNose intra-nasal delivery device. Six New Zealand White female rabbits were used, with the three experimental animals being given two 200 μL doses of Midazolam (5 mg/ml) per day, six hours apart. The three control animals were given four 200 μL doses of saline solution per day, at 3 hour intervals.
# The daily dosing was repeated for 10 days, for 11 days' dosage in total. 24 hours after the last dosing, the animals were sacrificed.
# The animals were observed once daily until study termination. Shortly before sacrifice, blood was taken for testing.
# After sacrifice, gross pathology was performed, examining major tissue and organ systems. Organs (nasal cavity (including olfactory epithelium), nasopharynx, paranasal sinus, trachea, lungs, larynx, brain (olfactory bulbs and hippocampus), heart, olfactory nerve, optic nerve and lacrimal glands) of all animals were harvested and examined. Three cross sections of the skull were taken: (1) in the nose from rostral, (2) behind the incisor teeth and (3) caudal, including the olfactory epithelium labyrinth, as shown in FIG. 85.
# Brains were dissected in the olfactory regions and the hippocampus. Lungs were evaluated in both right and left lobes. Tissues were trimmed, embedded in paraffin, sectioned at no more than 5 microns thickness, and stained with Hematoxylin & Eosin (H&E).
# In order to alleviate the discomfort an animal might endure during intra-nasal administration, prior to placement the sipNose device, Lidocaine was applied locally in the nasal area.
# [5] = Midazolam pharmacokinetic study, plasma and brain, SipNose vs IV; conditions: rats
# Protocol: Concentration of Midazolam in the plasma and brain of rats were compared for intranasal administration via the SipNose delivery device and via IV administration. A standard drug formulation (Injectable Midazolam 5 mg/ml, Pfizer/Hospira brand) was used, with no reformulation or adaptation for nasal delivery. Two drug concentrations were used for the intranasal administration, 0.2 mg/kg (dashed line in FIGS. 91 and 92) and 0.6 mg/kg (dot-dash line in FIGS. 91 and 92), compared to the standard of care I/V administration of 0.6 mg/kg (solid line in FIGS. 91 and 92). Concentration was measured 10 times in the 12 hours of the study. For each measurement time, midazolam concentration was measured in the plasma and brain of five animals.
# [6] = commercial nasal pump, 3 mg Midazolam
# [7] = commercial MAD Nasal atomizer, 1.4 mg
structure (smiles),measurement,setting,value
Cc1ncc2n1-c1ccc(Cl)cc1C(c1ccccc1F)=NC2 [Midazolam],Adverse events,"patients [1]; SipNose device, 3 mg Midazolam",0
same,Level of minimum BIS,"patients [1]; SipNose device, 3 mg Midazolam",74.5±9
same,Mean onset time,"patients [1]; SipNose device, 3 mg Midazolam",5.9 ± 4.6 min
same,level of Maximum BIS,"patients [1]; SipNose device, 3 mg Midazolam",97
same,"sleep score (1 not sleepy, 2 sleepy or calm, 3 sleeping)","patients [1]; SipNose device, 3 mg Midazolam",3
same,Number of Positive Sedations,"patients [1]; SipNose device, 3 mg Midazolam, 8 patients",8
same,failures in inducing anesthesia,patients [1]; SipNose device,no failures in 10 patients
same,"sleep score (1 not sleepy, 2 sleepy or calm, 3 sleeping)","patients [1]; commercial device (nasal pump), 3 mg Midazolam",less than 2
same,failures in inducing anesthesia,patients [1]; commercial devices,2 failures and one partial failure in 6 patients
same,Adverse events,patients [1]; [6],0
same,Level of minimum BIS,patients [1]; [6],87.5±5.3
same,Mean onset time,patients [1]; [6],6.7 ± 4.6 min
same,Minimum BIS excluding failure,patients [1]; [6],85
same,level of Maximum BIS,patients [1]; [6],97
same,Number of Positive Sedations,"patients [1]; commercial nasal pump, 3 mg Midazolam, 4 patients",3
same,sleeping score by observation,"patients [2]; SipNose administration, 1.4 mg",3
same,Positive Sedation,"patients [2]; SipNose device, 1.4 mg in two aliquots of 0.7 ml",Yes
same,Adverse events,"patients [2]; SipNose device, 1.4 mg",No
same,Level of minimum BIS,"patients [2]; SipNose device, 1.4 mg",84
same,Onset time,"patients [2]; SipNose device, 1.4 mg",3 min and 5 min
same,Positive Sedation,"patients [2]; commercial MAD Nasal atomizer, 1.4 mg in one aliquot",Limited and No
same,Adverse events,patients [2]; [7],No
same,Level of minimum BIS,patients [2]; [7],83 and 92
same,Onset time,patients [2]; [7],20 min and 8 min
same,sleeping score by observation (average),"patients [2]; commercial device, 1.4 mg",1.5
same,dose-response curve of brain concentration,[3],essentially linear
same,Amylase (blood chemistry),[4]; Midazolam group,240±13.1 IU/L
same,"all relevant safety parameters (clinical observations, histopathology, ophthalmic examination, haematology, blood analysis)",[4]; Midazolam vs control,no differences were found between the control and study groups
same,blood coagulation parameters,[4]; Midazolam vs control group,No differences were detected
same,histopathology,[4]; either group,No major histopathological abnormalities were found
same,"blood chemistry analysis, all results",[4]; repeated intra-nasal Midazolam,within the normal range for the blood of rabbits
same,blood hematology analysis,[4]; repeated intra-nasal Midazolam vs saline control,None of the parameters showed any difference between the control group and the study group
same,body weight during the study,"[4]; two 200 μL doses of Midazolam (5 mg/ml) per day via SipNose, repeated daily",did not exhibit major changes in weight
same,finding in frontal nose space,"[4]; two animals from the Midazolam group, attributed to device tip",very mild bleeding was detected in the frontal nose space
same,pharmacokinetic pattern,[5]; 0.6 mg/kg intranasal via SipNose,very similar to that of standard of care (I/V) administration
same,absorption into blood and brain,[5]; intranasal via SipNose (0.2 and 0.6 mg/kg) vs I/V 0.6 mg/kg,comparable to that seen for I/V administration

# Reference: patent US11278682B2, “Device and method for aerosolized delivery of substance to a natural orifice of the body” (SIPNOSE LTD., priority 2014, dated 2022)
